In one data set the test system is spleen cells of mice. In words: Plaqueforming Cell Assay (PFC test), in vitro immunization with sheep erythrocytes. The format is cell-based. The conditions noted are these: for Plaques/10^6 cells: added daily, 5 days, control 768. The method, then: (§1) The nonapeptide of the invention was tested in the Plaqueforming Cell Assay (PFC test) and in the phythemagglutinin stimulation test (PHA test) for its lymphocyte-stimulative action.
In the PFC test, cell cultures of freshly dissected spleens of mice (2×10^7 spleen cells per ml) were prepared in RPMI 1640 and 30 μl of fetal calf serum (FCS) per ml of cell culture. In vitro immunization is carried out with 5×10^7 sheep erythrocytes/ml. The test cell cultures are incubated daily with the corresponding dose of the test substance. After a test period of 5 days, the cells are centrifuged off, washed with RPMI 1640 medium, and the direct PCF test is carried out as follows: The cells are mixed in an agarose solution with a 10% sheep erythrocyte suspension, and poured onto a plane surface. In the gel layer so formed the stimulated lymphocytes set free antibodies in the subsequent incubation which diffuse in the environment and adhere to the sheep erythrocytes present in these places. After addition of guinea pig complement the red blood cells lyse. Light-colored, circular spots are formed in the reddish-brown gel, which can be discerned with a naked eye, and which are the hemolysis halos of the plaques. In the center of such hemoylsis halos there is an antibody-producing cell. The number of lymphoid cells which form specific immunoglobulins can therefore be equalized with the plaque values found.

A short description of data set [1]: toxic effects on administration (general statement).
For the next data set, the system named is lymphocytes. Briefly: phythemagglutinin stimulation test (PHA test), 3H-thymidine incorporation. Type of data set: cell-based. The conditions noted are these: for Stimulation index SI / Incorporation of 3H-thymidine: 20 μg PHA/ml, 72 hours; for Incorporation of 3H-thymidine: control 114 311. The method, then:
as §1
The PHA test allows conclusions on the amount of mature, that is, stimulable, lymphocytes by means of the function test on stimulability with the phytolectin PHA. The lectin, like bacterial or viral antigens, incites the lymphocytes to a blast transformation. It causesd proliferation either directly or by induction of lymphokine secretion.
The incorporation of radioactive thymidine within a defined period of time is then the measure for the number of stimulated cells. The mature or immunologically potent T cells only are stimulated. Thus, the influence of a substance on the maturation of lymphocytes can be observed by means of this test. However, stimulation must remain below the optimum; for, at a higher concentration other subpopulations of lymphocytes are stimulated, too, and the effect cannot be observed any longer. The peptide of the invention was added to the culture medium in varying concentrations.
Background: Uptake of a labelled nucleoside into DNA is a usual measure of proliferation.

Results on 1 compound are retold here after patent US4478828A, “Nonapeptide having immunostimulative activity, process for the preparation thereof, and its use” (Hoechst Aktiengesellschaft, priority 1982, dated 1984).

Molecules are shown by their SMILES. Square brackets hold non-standard residues; d marks the D form. Peptide text beside a SMILES is read from it. pGlu = O=C1CC[C@@H](C(=O)O)N1

Regarding `C[C@@H](O)[C@H](NC(=O)[C@H](CO)NC(=O)[C@H](CO)NC(=O)[C@H](CO)NC(=O)[C@H](CC(=O)O)NC(=O)[C@@H]1CCC(=O)N1)C(=O)NCC(=O)N[C@@H](Cc1c[nH]c2ccccc12)C(=O)N[C@@H](CC(N)=O)C(=O)O` [nonapeptide, L-pyroglutamyl-L-aspartyl-L-seryl-L-seryl-L-seryl-L-threonyl-glycyl-L-tryptophyl-L-asparagine] ([pGlu]DSSSTGWN-OH), the “Plaques/10^6 cells” value is listed as 908 Plaques/10^6 cells in the data set on spleen cells of mice (1 ng/ml nonapeptide); 1112 Plaques/10^6 cells in the data set on spleen cells of mice (10 ng/ml nonapeptide); 1024 Plaques/10^6 cells with spleen cells of mice (100 ng/ml nonapeptide); 817 Plaques/10^6 cells in the data set with spleen cells of mice (1 μg/ml nonapeptide); 802 Plaques/10^6 cells in the data set on spleen cells of mice (5 μg/ml nonapeptide). Besides, the “stimulation of the lymphocytes depending on the dose” value is given as “bell-shaped curve” in the data set with spleen cells of mice (PFC test, in words) and “bell-shaped curve” in the data set on lymphocytes (PHA test, in words). Besides, in data set [1], the toxic effects entry was “toxic effects have not been observed hitherto”. The “Stimulation index SI” value in the data set on lymphocytes (0.0125 μg/ml nonapeptide) worked out at 0.89; with lymphocytes (0.125 μg/ml nonapeptide), 1.20; in the data set on lymphocytes (0.5 μg/ml nonapeptide), 1.26; in the data set on lymphocytes (1.0 μg/ml nonapeptide), 1.00; with lymphocytes (5.0 μg/ml nonapeptide) it was 0.94. In addition, the “Incorporation of 3H-thymidine” value is given as 101 594 cpm in the data set with lymphocytes (0.0125 μg/ml nonapeptide); 137 519 cpm in the data set on lymphocytes (0.125 μg/ml nonapeptide); 143 831 cpm in the data set with lymphocytes (0.5 μg/ml nonapeptide); 113 978 cpm in the data set on lymphocytes (1.0 μg/ml nonapeptide); 107 670 cpm in the data set with lymphocytes (5.0 μg/ml nonapeptide).
